Source: US12522588B2, “Herbicidal compounds” (SYNGENTA CROP PROTECTION AG, priority 2020, dated 2026)

Columns and labels:
Type in all cases: in vivo
[1] = tested on: Amaranthus retoflexus (AMARE); experiment: Pre-emergence test, glasshouse; settings: 250 g/ha
Experimental: (§1) Seeds of a variety of test species are sown in standard soil in pots Amaranthus retoflexus (AMARE), Abutilon theophrasti (ABUTH), Setaria faberi (SETFA), Echinochloa crus-galli (ECHCG), Ipomoea hederacea (IPOHE)). After cultivation for one day (pre-emergence) or after 8 days cultivation (post-emergence) under controlled conditions in a glasshouse (at 24/16° C., day/night; 14 hours light; 65% humidity), the plants are sprayed with an aqueous spray solution derived from the formulation of the technical active ingredient in acetone/water (50:50) solution containing 0.5% Tween 20 (polyoxyethelyene sorbitan monolaurate, CAS RN 9005-64-5). Compounds are applied at 250 g/ha unless otherwise stated. The test plants are then grown in a glasshouse under controlled conditions in a glasshouse (at 24/16° C., day/night; 14 hours light; 65% humidity) and watered twice daily. After 13 days for pre and post-emergence, the test is evaluated for the percentage damage caused to the plant. The biological activities are shown in the following table on a five-point scale (5=81-100%; 4=61-80%; 3=41-60%; 2=21-40%; 1=0-20%).

[2] = tested on: Abutilon theophrasti (ABUTH); experiment: Pre-emergence test, glasshouse; settings: 250 g/ha; for percentage damage caused to the plant, ABUTH: evaluated after 13 days, Table B2
Experimental: as §1

[3] = tested on: Echinochloa crus-galli (ECHCG); experiment: Pre-emergence test, glasshouse; settings: 250 g/ha
Experimental: as §1

Setaria faberi (SETFA) [4] = experiment: Pre-emergence test, glasshouse; settings: 250 g/ha
Experimental: as §1

[5] = tested on: Ipomoea hederacea (IPOHE); experiment: Pre-emergence test, glasshouse; settings: 250 g/ha
Experimental: as §1

[6] = tested on: Amaranthus retoflexus (AMARE); experiment: Post-emergence test, glasshouse; settings: 250 g/ha
Experimental: as §1

[7] = tested on: Abutilon theophrasti (ABUTH); experiment: Post-emergence test, glasshouse; settings: 250 g/ha
Experimental: as §1

[8] = tested on: Echinochloa crus-galli (ECHCG); experiment: Post-emergence test, glasshouse; settings: 250 g/ha
Experimental: as §1

Setaria faberi (SETFA) [9] = experiment: Post-emergence test, glasshouse; settings: 250 g/ha
Experimental: as §1

[10] = tested on: Ipomoea hederacea (IPOHE); experiment: Post-emergence test, glasshouse; settings: 250 g/ha
Experimental: as §1

[11] = evaluated after 13 days, Table B2
[12] = evaluated after 13 days, Table B1

Row | SMILES | percentage damage caused to the plant, AMARE [1, 11] | percentage damage caused to the plant, ABUTH [2] | percentage damage caused to the plant, ECHCG [3, 11] | percentage damage caused to the plant, SETFA (Setaria faberi (SETFA) [4]; [11]) | percentage damage caused to the plant, IPOHE [5, 11] | percentage damage caused to the plant, AMARE [6, 12] | percentage damage caused to the plant, ABUTH [7, 12] | percentage damage caused to the plant, ECHCG [8, 12] | percentage damage caused to the plant, SETFA (Setaria faberi (SETFA) [9]; [12]) | percentage damage caused to the plant, IPOHE [10, 12] | percentage damage caused to the plant, AMARE ([1]; comparative test) | percentage damage caused to the plant, LABUTH ([2]; comparative test) | percentage damage caused to the plant, ECHCG ([3]; comparative test) | percentage damage caused to the plant, SETFA (Setaria faberi (SETFA) [4]; comparative test) | percentage damage caused to the plant, IPOHE ([5]; comparative test) | percentage damage caused to the plant, AMARE ([6]; comparative test) | percentage damage caused to the plant, ABUTH ([7]; comparative test) | percentage damage caused to the plant, ECHCG ([8]; comparative test) | percentage damage caused to the plant, SETFA (Setaria faberi (SETFA) [9]; comparative test) | percentage damage caused to the plant, IPOHE ([10]; comparative test)
1 | FC(F)(F)c1cccc(-n2nc(C(F)(F)F)cc2Oc2ncc(Cl)cn2)c1 [Compound 1.003] | 5 (5=81-100%) | 1 (1=0-20%) | 2 (2=21-40%) | 5 (5=81-100%) | 1 (1=0-20%) | 5 (5=81-100%) | 1 (1=0-20%) | 1 (1=0-20%) | 3 (3=41-60%) | 2 (2=21-40%) |  |  |  |  |  |  |  |  |  | 
2 | FC(F)(F)c1cc(Oc2ncc(Cl)cn2)n(-c2cccc(Cl)c2)n1 [Compound 1.004] | 5 (5=81-100%) | 1 (1=0-20%) | 2 (2=21-40%) | 3 (3=41-60%) | 1 (1=0-20%) | 5 (5=81-100%) | 1 (1=0-20%) | 3 (3=41-60%) | 3 (3=41-60%) | 4 (4=61-80%) |  |  |  |  |  |  |  |  |  | 
3 | FC(F)c1cc(Oc2ncc(Cl)cn2)n(-c2ccc(C(F)(F)F)cc2)n1 [Compound 1.005] | 4 (4=61-80%) | 1 (1=0-20%) | 1 (1=0-20%) | 2 (2=21-40%) | 1 (1=0-20%) | 5 (5=81-100%) | 3 (3=41-60%) | 1 (1=0-20%) | 2 (2=21-40%) | 2 (2=21-40%) |  |  |  |  |  |  |  |  |  | 
4 | Cc1ccc(-n2nc(C(F)(F)F)cc2Oc2ncc(Cl)cn2)nn1 [Compound 1.012] | 3 (3=41-60%) | 1 (1=0-20%) | 1 (1=0-20%) | 1 (1=0-20%) | 1 (1=0-20%) | 2 (2=21-40%) | 1 (1=0-20%) | 1 (1=0-20%) | 1 (1=0-20%) | 1 (1=0-20%) |  |  |  |  |  |  |  |  |  | 
5 | Cc1cc(Oc2ncc(Cl)cn2)n(-c2ccc(Cl)cc2)n1 [Compound C2, reference compound] |  |  |  |  |  |  |  |  |  |  | 1 (1=0-20%) | 1 (1=0-20%) | 1 (1=0-20%) | 1 (1=0-20%) | 1 (1=0-20%) | 3 (3=41-60%) | 1 (1=0-20%) | 2 (2=21-40%) | 2 (2=21-40%) | 1 (1=0-20%)
